Series [1] has as its system human primary hepatocytes. Briefly: Expansion of human primary hepatocytes on growth-arrested J2-3T3 feeder layer in 12-well plates (imaging, cell counting, FACS, biochemical assays). The series is classed as cell-based. As to the method: Culture media were collected and frozen at −20° C. until analysis. Albumin content was measured through sandwich ELISA assays (MP Biomedicals, Fitzgerald, Bethyl Laboratories) using horseradish peroxidase detection and 3,3′,5,5′-tetramethylbenzidine (TMB, Fitzgerald Industries) as a substrate. Urea concentration was determined colorimetrically using diacetylmonoxime with acid and heat (Stanbio Labs). To quantify CYP450 activity, at 48 hours after small molecule exposure, cultures were incubated with substrates (coumarin from Sigma for CYP2A6, luciferin-IPA from Promega for CYP3A4) for 4 hours at 37° C. Incubation medium was collected and metabolite concentration quantified via luminescence, or fluorescence after hydrolization of potential metabolite conjugates by β-glucuronidase/arylsulfatase (Roche, Ind.).
To characterize the effects of FPH1 and FPH2 outside of the screening platform, human primary hepatocytes were seeded at a density of ˜20,000 cells/cm^2, into standard 12-well tissue culture plates on top of a feeder layer of growth-arrested J2-3T3s. These cells were cultured for 7 days, during which time a single compound/FPH was supplemented into the media on days 1 and 5 at a concentration of 20 μM. Treated hepatocyte colonies increased in size over time, with more hepatocytes populating each colony (FIG. 2D, 2E).
To characterize the degree of proliferation and to obtain a doubling time, cells were counted and fluorescence-activated cell sorting (FACS) was performed (FIG. 2H). For cell counting, FPH-treated cells were trypsinized after seven days in culture. The number of cells was quantified using an automated cell counter. The number of hepatocytes was obtained by subtracting the number of fibroblasts from the total number of cells found in the corresponding co-culture. For FACS analysis, growth arrested J2-3T3s were labeled with CM-DiI prior to initiation of co-culture so that hepatocytes can be identified via negative selection. To enable cell counting during FACS, each sample was supplemented with fluorescent counting beads. […] Over 7 days, FPH1 induced hepatocyte doublings at a rate that is consistent with reported liver regeneration kinetics in vivo.
To assess the phenotype of the treated hepatocytes, imaging, biochemical analyses and gene expression profiling were performed. […] Albumin secretion and urea synthesis, a surrogate marker of nitrogen metabolism, were both stable throughout FPH treatment (FIG. 3A top and middle). Metabolic functions were assessed via examinations of cytochrome P450 (CYP450) activity and canalicular transport. […] Gene expression profiling confirmed that there are no significant differences between FPH-treated and untreated hepatocytes (FIG. 3C).

Series [2] has as its system human primary hepatocytes. The series is described as follows: High-throughput liver platform, primary screening: hepatocyte proliferation by automated high-content imaging (hepatocyte nuclei numbers). Format: cell-based. Conditions: primary screening. As to the method: In order to avoid species-specific differences and cell line mutations, the screen was conducted with human primary hepatocytes. Traditionally, chemical screening on such cells has been hindered by their availability in large quantities as well as their rapid loss of viability and phenotype in vitro. Recent advances in cryopreservation technologies allowed enough primary human cells to be stored for screening; these cells are maintained through co-cultivation with non-parenchymal cells. Co-cultures of primary human hepatocytes with murine embryonic J2-3T3 fibroblasts were recently shown to maintain normal hepatocyte phenotype for weeks. These in vitro platforms consisted of hepatocytes surrounded by a co-planar population of fibroblasts. While sufficient for stabilizing hepatocyte functions in vitro, such platforms may limit normal hepatocyte expansion due to contact inhibition. Thus, for this screen, a sparse population of hepatocytes was co-cultivated on top of a confluent feeder layer of J2-3T3 fibroblasts within 384-well plates (FIG. 1A top). This screening platform stabilized hepatocyte phenotypic functions in vitro (FIG. 1A bottom) and was compatible with two separate high-throughput readouts developed for this screen.
The primary readout detected hepatocyte proliferation via automated high-content imaging. This assay quantified hepatocyte nuclei numbers, using nuclear morphologies to separate the hepatocyte and fibroblast subpopulations that co-exist within the screening platform. When visualized with Hoechst stain, hepatocyte nuclei were smaller and more uniform in texture while fibroblast nuclei were larger and punctated (FIG. 1A bottom). Leveraging this distinction, automated image analyses was developed that utilized machine learning algorithms to classify nuclei types and tabulate hepatocyte nuclei numbers. […] Besides quantifying hepatocyte nuclei that have completed mitosis, the number of nuclei in the process of mitosis were also quantified. Two additional analysis pipelines were built to detect nuclear morphologies consistent with cells undergoing metaphase and anaphase.
FIG. 1B top summarizes the workflow of the screen. Primary screening was done on human primary hepatocytes, preconditioned for seven days by non-parenchymal cells in the screening platform. Upon stabilization in vitro, cultures were treated with the chemical library for 48 hours. All compounds were tested in duplicates, at a single concentration of 15 μM. This single concentration was selected via a pilot screen of ˜2,000 small molecules. All 12,480 small molecules were initially tested on a single donor of cryopreserved hepatocytes (donor a) in order to eliminate noise from donor-to-donor variability. Following compound treatment, media supernatants were collected for functional analyses via ELISA and cultures were fixed in 4% paraformaldehyde for proliferation analyses via imaging.
To identify proliferation hits, three image-based readouts—one each to quantify the number of (1) hepatocyte nuclei in interphase, (2) nuclei in metaphase and (3) nuclei in anaphase—were integrated. z Scores were converted into p values, which were then used to generate ranked lists of compounds based on the efficacy and consistency of effects across the different proliferation readouts. Efficacy was assessed by the product of p values (pprod=pinter×pmeta×pana); consistency was evaluated by the maximum of p values (pmax=max(pinter, pmeta, pana). Compounds were considered proliferation hits if pprod<1×10^−6 and pmax<0.25. Functional hits were selected by an ELISA […]. Compounds with ELISA z>3.0 were eliminated as toxic. 93 compounds met all hit selection criteria, qualifying as Functional Proliferation Hits (FPH); FIG. 1B bottom illustrates the types of compounds that constituted this set of hits.

Series [3] relates to primary human hepatocytes. The series is described as follows: Expansion of primary human hepatocytes from six additional cell sources (Ki67/albumin staining, FACS). The series is classed as cell-based. As to the method: On day seven, the number of hepatocytes was quantified by FACS analysis (FIG. 6B). Day one untreated controls was added to the bar graph for reference.
The next series relates to PI3KCγ. The series is described as follows: Kinome analysis (panel of kinases). The conditions noted are these: 1 μM. The series is classed as biochemical. As to the method:
(§1) Selected compounds of the invention (FPH1 and FPH2; both at 1 μM concentration) were screened against a panel of kinases (FIG. 17).

Another series deals with Pim1 (Homo sapiens, UniProt P11309). The series is described as follows: Kinome analysis (panel of kinases). Format: biochemical. The procedure:
as §1

A further series concerns the target CK1 γ2 (Homo sapiens, UniProt P78368). The series is described as follows: Kinome analysis (panel of kinases). The series is classed as biochemical. As to the method:
as §1

The target in another series is KDR (Homo sapiens, UniProt P35968). The series is described as follows: Kinome analysis (panel of kinases). The series is classed as biochemical. The procedure:
as §1

In the next series the target is SAPK4 (Homo sapiens, UniProt O15264). Briefly: Kinome analysis (panel of kinases). The series is classed as biochemical. The procedure:
as §1

The target of the next series is IGF-1R (Homo sapiens, UniProt P08069). The series is described as follows: Kinome analysis (panel of kinases). Format: biochemical. As to the method:
as §1

The target in another series is PAK5 (Homo sapiens, UniProt Q9P286). Briefly: Kinome analysis (panel of kinases). The series is classed as biochemical. The procedure: as §1
PAK5, sequence (Q9P286 whole entry): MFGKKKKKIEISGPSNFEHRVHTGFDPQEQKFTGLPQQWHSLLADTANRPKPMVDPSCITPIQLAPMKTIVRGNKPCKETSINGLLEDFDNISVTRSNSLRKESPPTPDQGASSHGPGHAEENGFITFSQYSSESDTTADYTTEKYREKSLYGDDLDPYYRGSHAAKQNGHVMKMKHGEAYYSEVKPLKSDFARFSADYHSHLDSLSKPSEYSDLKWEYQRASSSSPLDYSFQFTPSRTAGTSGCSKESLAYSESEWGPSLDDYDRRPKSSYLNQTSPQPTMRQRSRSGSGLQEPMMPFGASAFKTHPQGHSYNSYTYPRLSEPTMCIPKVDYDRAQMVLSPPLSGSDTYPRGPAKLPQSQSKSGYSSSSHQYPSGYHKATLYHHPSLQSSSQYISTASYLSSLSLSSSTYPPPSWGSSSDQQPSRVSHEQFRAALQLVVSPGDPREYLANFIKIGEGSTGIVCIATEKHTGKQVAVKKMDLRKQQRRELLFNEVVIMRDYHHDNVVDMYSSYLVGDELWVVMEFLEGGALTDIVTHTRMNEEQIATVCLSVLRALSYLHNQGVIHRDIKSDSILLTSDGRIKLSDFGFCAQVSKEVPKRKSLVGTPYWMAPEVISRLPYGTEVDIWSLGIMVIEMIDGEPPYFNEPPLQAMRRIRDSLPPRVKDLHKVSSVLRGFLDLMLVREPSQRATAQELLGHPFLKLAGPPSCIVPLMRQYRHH
A further series addresses eEF-2K (Homo sapiens, UniProt O00418). The series is described as follows: Kinome analysis (panel of kinases). The series is classed as biochemical. The procedure: as §1
The target in the next series is MSSK1 (Homo sapiens, UniProt Q9UPE1). The series is described as follows: Kinome analysis (panel of kinases). Format: biochemical. The procedure:
as §1

The next series has as its target MAPKAP-KII (Homo sapiens, UniProt P49137). The series is described as follows: Kinome analysis (panel of kinases). Format: biochemical. As to the method: as §1
The target in another series is MAPKAPKV (PRAK) (Homo sapiens, UniProt Q8IW41). Briefly: Kinome analysis (panel of kinases). Format: biochemical. The conditions noted are these: read-out: MAPKAPKV (PRAK) inhibition. As to the method:
as §1

The next series deals with EphB4 (Homo sapiens, UniProt P54760). The series is described as follows: Kinome analysis (panel of kinases). The series is classed as biochemical. As to the method:
as §1

The next series has as its target FMS (Homo sapiens, UniProt P07333). The series is described as follows: Kinome analysis (panel of kinases). Format: biochemical. As to the method: as §1
Another series concerns the target GRK1 (Homo sapiens, UniProt Q15835). The series is described as follows: Kinome analysis (panel of kinases). The series is classed as biochemical. As to the method:
as §1

Molecules are shown by their SMILES.

FMS, sequence (P07333 20-972, species assumed): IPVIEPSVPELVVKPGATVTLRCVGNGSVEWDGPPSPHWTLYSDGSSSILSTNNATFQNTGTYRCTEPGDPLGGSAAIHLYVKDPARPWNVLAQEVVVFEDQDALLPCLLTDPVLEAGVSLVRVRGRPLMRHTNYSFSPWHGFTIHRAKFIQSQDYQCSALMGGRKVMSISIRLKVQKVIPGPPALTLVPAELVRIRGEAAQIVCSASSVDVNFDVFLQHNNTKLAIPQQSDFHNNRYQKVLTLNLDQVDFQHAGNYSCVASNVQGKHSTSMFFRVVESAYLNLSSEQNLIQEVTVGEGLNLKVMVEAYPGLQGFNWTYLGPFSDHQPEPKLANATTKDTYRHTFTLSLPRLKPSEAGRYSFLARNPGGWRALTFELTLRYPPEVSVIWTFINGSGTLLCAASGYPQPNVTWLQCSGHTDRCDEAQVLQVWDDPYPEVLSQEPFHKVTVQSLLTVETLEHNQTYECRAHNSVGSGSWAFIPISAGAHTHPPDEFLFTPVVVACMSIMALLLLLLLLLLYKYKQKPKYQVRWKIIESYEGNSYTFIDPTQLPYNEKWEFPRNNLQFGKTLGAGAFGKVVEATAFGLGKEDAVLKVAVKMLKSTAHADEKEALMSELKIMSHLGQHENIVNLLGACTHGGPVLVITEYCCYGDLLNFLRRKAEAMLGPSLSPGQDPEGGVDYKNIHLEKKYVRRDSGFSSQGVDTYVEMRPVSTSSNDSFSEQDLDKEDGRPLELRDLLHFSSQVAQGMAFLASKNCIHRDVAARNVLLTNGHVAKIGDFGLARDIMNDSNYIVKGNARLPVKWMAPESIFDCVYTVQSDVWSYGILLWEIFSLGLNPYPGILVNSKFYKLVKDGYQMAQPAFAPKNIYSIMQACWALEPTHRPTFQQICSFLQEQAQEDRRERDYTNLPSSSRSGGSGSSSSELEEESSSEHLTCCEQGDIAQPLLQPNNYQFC
IGF-1R, sequence (P08069 31-1367, species assumed): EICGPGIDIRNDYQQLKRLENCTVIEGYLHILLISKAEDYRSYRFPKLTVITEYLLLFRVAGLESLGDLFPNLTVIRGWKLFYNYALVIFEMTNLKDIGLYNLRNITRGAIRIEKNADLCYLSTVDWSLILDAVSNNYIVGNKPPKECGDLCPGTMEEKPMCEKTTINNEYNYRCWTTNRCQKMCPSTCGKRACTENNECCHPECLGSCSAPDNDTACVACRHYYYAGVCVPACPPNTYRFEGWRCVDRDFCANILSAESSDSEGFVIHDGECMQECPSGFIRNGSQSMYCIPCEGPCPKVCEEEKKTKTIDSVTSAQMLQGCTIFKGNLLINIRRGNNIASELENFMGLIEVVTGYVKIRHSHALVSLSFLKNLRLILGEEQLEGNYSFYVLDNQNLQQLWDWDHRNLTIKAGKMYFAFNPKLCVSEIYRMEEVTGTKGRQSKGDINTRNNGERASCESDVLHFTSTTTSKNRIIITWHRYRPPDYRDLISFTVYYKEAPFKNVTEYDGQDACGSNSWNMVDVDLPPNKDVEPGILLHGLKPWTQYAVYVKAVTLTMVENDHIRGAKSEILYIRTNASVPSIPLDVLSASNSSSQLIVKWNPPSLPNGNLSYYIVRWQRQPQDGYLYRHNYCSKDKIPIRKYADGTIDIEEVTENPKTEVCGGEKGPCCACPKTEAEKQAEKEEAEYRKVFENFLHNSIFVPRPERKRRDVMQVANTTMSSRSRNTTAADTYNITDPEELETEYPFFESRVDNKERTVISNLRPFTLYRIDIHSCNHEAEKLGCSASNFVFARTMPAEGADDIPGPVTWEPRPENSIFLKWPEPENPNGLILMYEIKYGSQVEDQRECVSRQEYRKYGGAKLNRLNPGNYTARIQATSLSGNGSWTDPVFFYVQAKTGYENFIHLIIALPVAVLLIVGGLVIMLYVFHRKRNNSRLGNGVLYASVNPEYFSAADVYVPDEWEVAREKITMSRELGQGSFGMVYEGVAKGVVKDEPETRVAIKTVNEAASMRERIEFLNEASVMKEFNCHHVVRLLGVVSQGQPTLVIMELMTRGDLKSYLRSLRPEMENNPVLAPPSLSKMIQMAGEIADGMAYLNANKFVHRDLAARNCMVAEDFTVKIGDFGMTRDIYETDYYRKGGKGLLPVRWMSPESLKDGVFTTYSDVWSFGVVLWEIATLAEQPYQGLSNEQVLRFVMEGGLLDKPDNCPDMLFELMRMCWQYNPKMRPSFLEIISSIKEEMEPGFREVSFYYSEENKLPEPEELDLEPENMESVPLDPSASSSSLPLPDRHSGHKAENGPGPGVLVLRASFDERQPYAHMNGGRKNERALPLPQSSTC
CK1 γ2, sequence (P78368 whole entry): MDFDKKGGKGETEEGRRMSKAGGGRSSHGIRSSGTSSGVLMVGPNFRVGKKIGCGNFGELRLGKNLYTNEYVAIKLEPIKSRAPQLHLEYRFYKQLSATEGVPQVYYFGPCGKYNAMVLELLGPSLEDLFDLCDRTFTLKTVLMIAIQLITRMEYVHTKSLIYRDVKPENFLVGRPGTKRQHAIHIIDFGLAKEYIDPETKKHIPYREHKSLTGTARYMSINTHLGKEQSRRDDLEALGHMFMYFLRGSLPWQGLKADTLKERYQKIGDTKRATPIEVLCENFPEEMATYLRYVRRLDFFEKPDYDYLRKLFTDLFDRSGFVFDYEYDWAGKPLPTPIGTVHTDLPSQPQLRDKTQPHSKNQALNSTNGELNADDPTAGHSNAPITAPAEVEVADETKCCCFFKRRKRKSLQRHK
MAPKAPKV (PRAK), sequence (Q8IW41 whole entry, species assumed): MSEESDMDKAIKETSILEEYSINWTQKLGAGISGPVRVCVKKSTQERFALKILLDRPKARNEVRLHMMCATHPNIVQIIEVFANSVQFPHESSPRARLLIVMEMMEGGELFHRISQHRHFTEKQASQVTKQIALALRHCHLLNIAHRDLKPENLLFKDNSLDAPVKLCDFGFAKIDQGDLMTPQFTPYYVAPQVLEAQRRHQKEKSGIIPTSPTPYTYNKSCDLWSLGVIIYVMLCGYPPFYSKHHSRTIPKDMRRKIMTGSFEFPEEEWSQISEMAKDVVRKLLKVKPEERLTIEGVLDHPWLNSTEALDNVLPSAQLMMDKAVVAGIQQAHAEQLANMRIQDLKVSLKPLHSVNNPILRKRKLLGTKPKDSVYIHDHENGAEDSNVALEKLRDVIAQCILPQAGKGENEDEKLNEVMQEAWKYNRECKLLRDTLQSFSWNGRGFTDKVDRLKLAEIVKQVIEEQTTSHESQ
SAPK4, sequence (O15264 whole entry, species assumed): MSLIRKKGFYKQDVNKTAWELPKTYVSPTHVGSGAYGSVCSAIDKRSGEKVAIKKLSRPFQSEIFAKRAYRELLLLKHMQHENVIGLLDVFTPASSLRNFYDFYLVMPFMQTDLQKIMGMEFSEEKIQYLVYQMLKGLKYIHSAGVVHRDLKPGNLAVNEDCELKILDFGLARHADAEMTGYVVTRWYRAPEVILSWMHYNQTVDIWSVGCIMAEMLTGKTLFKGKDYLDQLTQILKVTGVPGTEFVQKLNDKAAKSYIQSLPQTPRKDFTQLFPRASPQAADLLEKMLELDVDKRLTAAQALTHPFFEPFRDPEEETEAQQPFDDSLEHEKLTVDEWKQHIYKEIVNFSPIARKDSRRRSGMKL
MSSK1, sequence (Q9UPE1 whole entry, species assumed): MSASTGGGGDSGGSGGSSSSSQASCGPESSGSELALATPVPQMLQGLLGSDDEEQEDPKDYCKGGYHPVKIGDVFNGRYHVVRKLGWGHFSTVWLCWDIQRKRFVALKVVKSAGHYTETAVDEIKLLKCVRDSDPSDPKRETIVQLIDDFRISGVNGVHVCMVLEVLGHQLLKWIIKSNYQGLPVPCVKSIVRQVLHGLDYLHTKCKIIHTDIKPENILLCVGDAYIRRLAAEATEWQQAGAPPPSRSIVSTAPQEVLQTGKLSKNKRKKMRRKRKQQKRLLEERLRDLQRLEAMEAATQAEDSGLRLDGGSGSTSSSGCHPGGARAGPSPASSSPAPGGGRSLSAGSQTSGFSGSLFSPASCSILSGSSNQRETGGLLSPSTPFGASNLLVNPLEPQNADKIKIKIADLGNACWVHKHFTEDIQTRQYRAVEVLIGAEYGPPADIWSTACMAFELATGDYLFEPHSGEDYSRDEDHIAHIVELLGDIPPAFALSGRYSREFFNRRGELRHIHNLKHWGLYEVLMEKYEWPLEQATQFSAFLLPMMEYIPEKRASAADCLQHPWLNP

With `CCn1cc(NC(=S)Nc2cc(Cl)ccc2OC)c(C(N)=O)n1` [FPH1, 4-(3-(5-chloro-2-methoxyphenyl)thioureido)-1-ethyl-1H-pyrazole-3-carboxamide], the “increase in the area of albumin-positive colonies” value in series [1] (20 μM on days 1 and 5, 7 days culture) was “up to 6.6 fold”. Further, the “degree of proliferation (cell counting, FACS)” value in [1] (7 days) was “strongest proliferation inducer”. Besides, the “number of nuclei undergoing mitosis” value in series [2] is reported as “elevated”. Besides, in [2] (15 μM, 48 hours), the “increase in hepatocyte nuclei numbers during primary screening” value is listed as 1.5 ×. In [3] (day seven, all donors), the “number of hepatocytes by FACS” value is given as “increase”. Moreover, the “Ki67 staining co-localized with albumin labeled hepatocytes” value in series [3] (six additional cell sources, six days in culture) is on record as “increased”. The PI3KCγ inhibition in the series on PI3KCγ was 6.7-18.4%. For the same molecule, the inhibition at 1 µM against Pim1 was 6.7 to 18.4%; against CK1 γ2 it was 6.7 to 18.4%; at KDR it was 6.7 to 18.4%; on SAPK4 it was 6.7 to 18.4%; against IGF-1R it was 21%; at PAK5, 6.7 to 18.4%. Besides, the inhibition at 1 µM on eEF-2K was 6.7 to 18.4%; against MSSK1, 6.7 to 18.4%; against MAPKAP-KII, 6.7 to 18.4%; on MAPKAPKV (PRAK), 6.7 to 18.4%; on EphB4, 6.7 to 18.4%; on FMS, 23%. The same molecule had an inhibition at 1 µM at GRK1 of 6.7 to 18.4%. For the same molecule, the remaining activity at 1 µM at IGF-1R came out at 79%; at FMS, 77%.

Source of the values: US10081609B2, “Compounds for inducing proliferation and differentiation of cells, and methods of use thereof” (The Broad Institute, Inc., priority 2013, dated 2018).
